In this assay the test system is P. falciparum 3D7 growth, pLDH absorbance. The assay can be described thus: P. falciparum 3D7 growth inhibition, dose response, strain 3D7 (AID 2305).

`CC[C@H]1CN2CC[C@H]1C[C@H]2[C@H](O)c1ccnc2ccc(C#N)cc12` gave an IC50 of 150 nM. Turning to `COc1ccc(CNC2Cc3ccccc3C2)cc1-c1ccc(S(=O)(=O)NCCN2CCCC2)s1`, the IC50 came to 190 nM. With `Cc1cc(CNCCCCCCCNCc2ccc(Cl)cc2)ccc1O` the figure was 980 nM; with `COc1cc2nc(N[C@@H](CO)c3ccccc3)nc(NCc3ccccc3)c2cc1OC`, 660 nM; with `CCCCOC(=O)c1ccc(Nc2cc(C)nc3ccc(OC)cc23)cc1`, 640 nM. `CN1CCN(c2ccc(-c3cc(-c4ccncc4)c(-c4ccc(Cl)c(O)c4)o3)cc2)CC1`: the IC50 came to 740 nM. With `CC(C)CCCC(C)(C)NC[C@@H](O)[C@H](Cc1ccccc1)NC(=O)c1cc(NC(C)C)cc(N2CCCCS2(=O)=O)c1F` the figure was 220 nM; with `CC[C@H]1CN2CC[C@@H]1C[C@H]2[C@H](O)c1cc(N2CCC(C(N)=O)CC2)nc2ccc(OC)cc12`, 770 nM. `O=C1C([N+](=O)[O-])=C(O)c2cccc(F)c21` displayed an IC50 of 150 nM. In turn, `Cc1[nH]c(C)c(-c2ccc(Oc3ccc(Cl)cc3)cc2)c(=O)c1Br` displayed an IC50 of 590 nM. `Cc1ccc(OC2CCN(c3ccc(C(=O)NC4CC4)cn3)CC2)cc1` yielded an IC50 of 1300 nM. In turn, `CN(CCN)Cc1cccc(-c2cccc(-c3nc4ccc(F)cc4[nH]3)c2)c1` had a half-maximal inhibitory concentration (IC50) of 790 nM.

In the case of `O=C(Nc1ccccc1)N(Cc1ccc(-c2ccc(CNC3CCCC3)cc2)cc1)C1CCN(Cc2ccccc2)CC1`, the IC50 was found to be 410 nM.

On to `Cc1cc(NCC(c2ccccc2)c2ccccc2)nc(NCC2CCCCC2)n1`, for which the IC50 is 510 nM. With `O=C(Cc1cnc[nH]1)Nc1cccc(-c2ccc(-c3nc4ccc(C(F)(F)F)cc4[nH]3)s2)c1` the figure was 770 nM; with `CCCCCCOc1ccccc1C(=O)NCCOc1ccc(Cl)cc1`, 1210 nM; with `COc1cc2nc(NCC3CCN(C(=O)c4ccc(-c5ccc(C(=O)N(C)C)cc5C)cc4)CC3)nc(N)c2cc1OC`, 950 nM. As to `COc1ccc2nccc([C@H](O)CN3CCC(NCc4ccc5c(c4C)OCCO5)CC3)c2n1`, the IC50 amounted to 890 nM.

`NC(=O)c1ccc(C(=O)Nc2cccc(-c3csc(-c4nc5ccccc5[nH]4)c3)c2)cc1` had an IC50 of 350 nM. The molecule `CCCCSc1ccc(CNCCCCCCNCc2ccc(SCCCC)c3ccccc23)c2ccccc12` displayed an IC50 of 630 nM.

Molecule `COc1cc2c(cc1C(F)(F)F)N(C(=O)Nc1cc(F)c(F)c(-c3cccnc3)c1)CC2` yielded an IC50 of 630 nM. For `O=S(=O)(c1ccc(NC(=S)NN=Cc2ccccn2)cc1)N1CCCCC1` the value was 720 nM; for `Cc1nnsc1C(=O)Nc1cccc(-c2ccc(-c3nc4ccccc4[nH]3)s2)c1`, 880 nM.

Molecule `OC(CNc1ccnc(Nc2cccc(CCN3CCOCC3)c2)n1)c1ccccc1` (stereo not drawn) registered an IC50 of 590 nM. Consider `c1ccc(-c2nc(Nc3nc4ccccc4[nH]3)[nH]c2-c2ccccc2)cc1`, for which the IC50 came out at 620 nM. For `N#Cc1cccc(NC(=O)Nc2cccc(OC3CCN(Cc4ccccc4)CC3)c2)c1` the value was 840 nM; for `CC1(C)N=C(N)NC(NOCCCCCCONC2=NC(C)(C)N=C(N)N2)=N1`, 30 nM; for `CCc1cn2c3c(cc(C(=O)N[C@@H](Cc4cccc(F)c4)[C@H](O)CNC4CCCCC4)cc13)N(C)S(=O)(=O)CC2`, 30 nM. For the molecule `CCN(CC)CCCC(C)Nc1c(-c2ccc(Br)cc2)cnc2ccccc12` (stereo not drawn), the concentration for half-maximal inhibition (IC50) amounted to 700 nM.

In turn, `CN(C(=O)c1ccc(Br)cc1)c1ccccc1[N+](=O)[O-]` yielded an IC50 of 930 nM. With `CN(C)CCN1CCN(Cc2cccc(-c3csc(-c4nc5ccccc5[nH]4)c3)c2)CC1`, the IC50 turned out to be 400 nM. The molecule `N#Cc1ccc2c(c1)CCN(CCC1CCC(NC(=O)c3cc4cccc(Cl)c4[nH]3)CC1)CC2` (stereo not drawn) yielded an IC50 of 580 nM. `Oc1ccc(Cl)c2c1C(c1ccccc1)=NCC2`: the 50% inhibitory concentration (IC50) worked out at 540 nM.

Molecule `COC(=O)c1ccc(NC(=O)Nc2ccc(Cn3ncc(N4CCCNCC4)c(Cl)c3=O)cc2)cc1` returned an IC50 of 600 nM. Molecule `CCc1nonc1NC(=O)c1oc2c(C)c(C)ccc2c1C` gave an IC50 of 880 nM. In turn, `CCOc1ccc(OCC)c(N2CCN(CCCCNC(=O)c3ccc(NC(=O)c4ccc(Cl)cc4)cc3)CC2)c1` returned a concentration for half-maximal inhibition (IC50) of 590 nM. In the case of `COc1ccc2nc(Nc3nc(-c4ccccn4)cs3)sc2c1`, the IC50 came to 1120 nM.

With `CC(=O)Nc1ccc(CN2CCC(N(C)c3cc(NC(=O)c4cccs4)ccn3)CC2)cc1`, the IC50 stood at 890 nM. For `CCCCOC(=O)c1ccc(NC(=O)Nc2ccc(Cn3ncc(N4CCCNCC4)c(Cl)c3=O)cc2)cc1` the value was 740 nM; for `CCCn1c(Sc2ccc(C#N)c([N+](=O)[O-])c2)nnc1-c1ccc(OC)cc1`, 860 nM. `O=C(NC1CCN(CCN2CCC(c3c[nH]c4ccccc34)CC2)CC1)c1ccc(-c2ccc(C(F)(F)F)cc2)cc1` came in with a concentration for half-maximal inhibition (IC50) of 200 nM.

Turning to `CCOc1c(Br)cc(C)cc1CNCCCNc1nc2ccccc2[nH]1`, the half-inhibitory concentration (IC50) worked out at 670 nM.

In turn, `COc1ccc2sc(CNCCCNc3cc(=O)c4ccccc4[nH]3)c(Cl)c2c1` registered an IC50 of 1070 nM. In the case of `CC(C)(C)c1ccc(CN2CCCCC(NC(=O)c3cc(-c4ccccc4Cl)cs3)C2)cc1` (stereo not drawn), the IC50 worked out at 1120 nM. Take `CCN(CC)CCN(Cc1ccc(-c2ccc(C(F)(F)F)cc2)cc1)C(=O)c1ccc(-c2ccc(NC(=O)OC)cc2C)cc1`: the 50% inhibitory concentration (IC50) stood at 930 nM. Take `O=C(NC1CCC(CN2CCC(c3c[nH]c4ccccc34)CC2)CC1)c1cc2cccc([N+](=O)[O-])c2[nH]1` (stereo not drawn): the half-inhibitory concentration (IC50) turned out to be 340 nM. For `Cc1noc(-c2ccccc2)c1CN1CCCC2(CC(C(=O)NCc3cccc(F)c3F)=NO2)C1` (stereo not drawn) the value was 1010 nM; for `Cc1nc(-c2cccc(Nc3nccc(NCC(O)c4ccccc4)n3)c2)cs1` (stereo not drawn), 790 nM. Molecule `CC(CN(C)C)C(=O)Nc1cccc(-c2ccc(-c3nc4ccc(F)cc4[nH]3)s2)c1` (stereo not drawn) registered a half-inhibitory concentration (IC50) of 800 nM.

`CC(C)(NCc1ccc(OC(F)(F)F)cc1)c1nc(-c2ccc(Cl)c(O)c2)c(-c2ccncc2)[nH]1` showed a concentration for half-maximal inhibition (IC50) of 940 nM. With `O=C(NCCCCN1CCC(c2ccc3c(c2OCCO)CCCC3)CC1)c1sc(-c2ccc(C(F)(F)F)cc2)nc1CO`, the IC50 is 1050 nM.

With `Cc1[nH]c2ccc(-c3ccc(OC(F)(F)F)cc3)cc2c(=O)c1C#N`, the IC50 worked out at 20 nM. For the molecule `CCOc1ccc2nc3cc(NC(=O)c4ccco4)ccc3c(N)c2c1`, the IC50 came out at 800 nM. Regarding `CC(C)(C)c1cc(C(=O)N2CCN(c3ncccc3C(F)(F)F)CC2)n(Cc2ccccc2)n1`, the IC50 was 250 nM. For `Cc1cccc2[nH]c(-c3cccc(-c4ccc(C(=O)NCc5nccn5C)cc4)c3)nc12`, the IC50 amounted to 1320 nM. Molecule `CCCC(C)NC[C@@H](O)[C@H](Cc1ccccc1)NC(=O)c1cc(C2CCCC2)cc(N2CCCCS2(=O)=O)c1` (stereo partly drawn) yielded an IC50 of 150 nM. With `COc1cccc(NC(=O)[C@H](C)n2c(=O)[nH]c3ccccc3c2=O)c1` the figure was 760 nM.

Take `COc1ccc2ncc(F)c(CCN3CC[C@H](NCc4cc5c(s4)CCCN5)[C@H](O)C3)c2n1`: the IC50 was determined as 960 nM.

As for `Nc1nc(F)nc2nc[nH]c12`, the 50% inhibitory concentration (IC50) was 430 nM. `O=C(NCCCCN1CCC(c2ccc3c(c2OCC2CC2)CCCC3)CC1)c1ccc(NC(=O)c2ccc(Cl)cc2)cc1` yielded a half-maximal inhibitory concentration (IC50) of 680 nM. The molecule `N=C(N)c1ccc(OCCCCCOc2ccc(C(=N)N)cc2)cc1` yielded a half-inhibitory concentration (IC50) of 140 nM. With `NC(=NCc1ccccc1Cl)NCCc1c[nH]c2ccccc12` the figure was 110 nM; with `COc1ccc2nc(C)cc(NN=Cc3ccccc3Cl)c2c1`, 600 nM.

In turn, `Cc1noc(C)c1C(=O)N1CCc2cc3nccc(N4CCN5CCC[C@H]5C4)c3cc21` came in with a concentration for half-maximal inhibition (IC50) of 870 nM.

`Cc1onc(-c2ccccc2)c1-c1nc(NCCC(c2ccccc2)c2ccccc2)no1` gave an IC50 of 840 nM. With `O=C(Cn1nc(Br)nc1[N+](=O)[O-])NCC1CCCCC1`, the IC50 worked out at 1100 nM. Molecule `O=C(Nc1ccnc(N2CCCN(Cc3cccc(O)c3)CC2)c1)c1ccc(F)cc1` displayed an IC50 of 1480 nM. For the molecule `CCNC(=O)Nc1ccc(-c2cccc(-c3nc4c(C)cccc4[nH]3)c2)cc1`, the IC50 worked out at 760 nM. For `O=C(Nc1ccc([N+](=O)[O-])cc1Cl)c1cc(Br)cc(Cc2ccccc2)c1O` the value was 1290 nM; for `COc1ccccc1C1CCN(C2CCC(NC(=O)/C=C/c3ccc(F)c(F)c3)CC2)CC1` (stereo not drawn), 1320 nM. For `CC(C)(C)OC(=O)NCC(=O)N(Cc1ccccc1)Cc1ccccc1` the value was 120 nM. The molecule `O=S(=O)(c1ccc(OCc2ccc(Cl)cc2)cc1)c1cc2c(cc1O)CCN(C1CCC1)CC2` had an IC50 of 940 nM.

On to `O=C(Nc1ccc(CC(=O)N2CCc3cc(Cl)c(N4CCN(C/C=C/c5ccccc5)CC4)cc32)cc1)Nc1cccc([N+](=O)[O-])c1`, for which the IC50 came out at 760 nM. For `N=C(N)c1cc(Br)cc(NC(=O)Nc2cc(Br)cc(C(=N)N)c2)c1` the value was 820 nM; for `CCc1ccccc1-c1csc(C(=O)NCC2CCN(Cc3ccc(C(C)(C)C)cc3)C2)c1` (stereo not drawn), 1150 nM. Molecule `O=C(Cc1ccccc1)NC(c1ccc(Cl)cc1)c1ccc2cccnc2c1O` (stereo not drawn) came in with an IC50 of 860 nM. For the molecule `CC(C)CNCc1cccc(-c2ccc(CN(CCCN3CCN(C)CC3)C(=O)/C=C/c3ccccc3)cc2)c1`, the half-inhibitory concentration (IC50) amounted to 860 nM. As to `CN1CCCN(Cc2cccc(-c3cccc(NS(=O)(=O)c4cccc5cccnc45)c3)c2)CC1`, the IC50 worked out at 760 nM.

As to `COc1cccc(-c2cc(C(=O)Nc3cc(Oc4ccc(O)cc4)cc([N+](=O)[O-])c3)on2)c1`, the IC50 stood at 1050 nM.

The molecule `COc1ccc2c(NN=Cc3cccc(Cl)c3)cc(C)nc2c1` came in with an IC50 of 730 nM. The molecule `CC(C)COc1ccc(Cl)cc1Nc1nc(-c2nc3ccccc3[nH]2)cs1` returned an IC50 of 880 nM. Molecule `NC(=O)Nc1ccc2cn[nH]c2c1` displayed an IC50 of 210 nM. `O=C(N[C@@H](Cc1ccccc1)C(=O)NC1CCCCC1)c1ccc(O)c(-c2ccc(Cl)c(Cl)c2)c1`: the IC50 is 230 nM.

In turn, `Cc1ccc2nc(/C=C/c3cccc4cc[nH]c34)[nH]c2c1` returned an IC50 of 1180 nM. For `Cc1cc(N[C@@H](Cc2ccccc2)C(=O)NC2CCCC2)nc(NCCCOC(C)C)n1` the value was 1480 nM; for `Cc1ccc2nc(C)cc(NN=Cc3cccc([N+](=O)[O-])c3)c2c1`, 880 nM. `CNCCNCc1cccc(-c2ccc(-c3nc4ccc(C(F)(F)F)cc4[nH]3)cc2)c1`: the IC50 was 690 nM. With `CC(C)c1ccc(C(NC(=O)C2CCCCC2)c2ccc3cccnc3c2O)cc1` (stereo not drawn) the figure was 600 nM.

The IC50 is the midpoint of a concentration-inhibition curve. Lower therefore signals inhibition by little substance.

(Values after PubChem BioAssay AID2305 (GlaxoSmithKline (GSK), 2010).)
